The values below are quoted from earlier work in US7105176B2, “Production of solid preparations of water-soluble, sparingly water-soluble or water-insoluble active compounds” (BASF Aktiengesellschaft, priority 2000, dated 2006).

The conditions of this data set: at 314 nm.

In the case of `CCCCC(CC)COC(=O)c1ccc(Nc2nc(Nc3ccc(C(=O)OCC(CC)CCCC)cc3)nc(Nc3ccc(C(=O)OCC(CC)CCCC)cc3)n2)cc1` (stereo not shown) [Uvinul® T150, 2,4,6-trianilino-p-(carbo-2′-ethylhexyl-1′-oxy)-1,3,5-triazine], the extinction coefficient is reported as above 1500.
